Laboratory results from US7795446B2, “Benzimidazole derivatives useful as selective androgen receptor modulators (SARMS)” (priority 2004, dated 2010).

tested on: ventral prostate and seminal vesicle weights, testosterone propionate-treated castrated male Sprague Dawley rats; assay: Ventral Prostate and Seminal Vesicle Weight In Vivo Assay; conditions: percent inhibition of testosterone-enhanced prostate weight; immature castrated male rats; test compound usually orally 40 mg/kg (2 mg/day) once daily for five days plus testosterone propionate 2 mg/kg s.c.
Description: Ventral Prostate and Seminal Vesicle Weight In Vivo Assay
Immature (approximately 50 g) castrated male Sprague Dawley rats (Charles River) were treated once daily for five days with test compound (usually given orally at 40 mg/kg in a volume of 0.3 mL, in 30% cyclodextrin or 0.5% methylcellulose vehicle) and with testosterone propionate (given subcutaneously by injection at the nape of the neck at 2 mg/kg, in a volume of 0.1 mL in sesame oil). On the sixth day, the rats were euthanized by asphyxiation in carbon dioxide. Ventral prosatates and seminal vesicles were removed and their wet weights determined. Test compound activity was determined as the percent inhibition of testosterone-enhanced tissue weights, with a vehicle-treated control group set to zero percent and a testosterone alone-treated control group set to 100%.
Representative compounds of the present invention were tested according to the procedure described, with results as listed in Table 7 below. A test compound is listed as “active” if the non weight adjusted prostate weight was ≦40 mg or the % Inhibition prostate weight, body weight adjusted was ≧40%@ 2 mg/day dosage. ID50's, if determined, of ≦15 mg/day also indicated an “active” compound.

Molecule | Activity
3,3,3-Trifluoro-2-methoxy-2-phenyl-propionic acid 1-(5,6-dichloro-1H-benzamidazol-2-yl)-2,2,2-trifluoro-1-methyl-ethyl ester [Compound 107] | active
CSCC(C)(O)c1nc2cc(Cl)c(Cl)cc2n1C (stereo not shown) [Compound 12] | active
Cn1c(C(C)(O)CSCc2ccccc2)nc2cc(Cl)c(Cl)cc21 (stereo not shown) [Compound 23] | active
O=[N+]([O-])c1cc2nc(C(O)C(F)(F)F)[nH]c2cc1[N+](=O)[O-] (stereo not shown) [Compound 155, 1-(5,6-Dinitro-1H-benzoimidazol-2-yl-)2,2,2-trifluoro-ethanol] | inactive
